Data published in PMC6042793 (PLoS ONE, 2018).

Legend:
[1] = tested on: sialidase activity of A/Shizuoka/1573/2009 (H1N1pdm), H275Y; assay type: biochemical, influenza A virus (H1N1pdm); settings: pH 6.5
[2] = tested on: sialidase activity of A/Shizuoka/30/2014 (H1N1pdm), H275Y; assay type: biochemical, influenza A virus (H1N1pdm); settings: pH 6.5
[3] = molecular target: viral sialidase activity of A/Shizuoka/1573/2009 (H1N1pdm), H275Y (Influenza A virus, UniProt C3W5S3, H275Y); assay type: biochemical; settings: read-out: IC50 values in the sialidase inhibition assay
[4] = molecular target: viral sialidase activity of A/Shizuoka/30/2014 (H1N1pdm), H275Y (Influenza A virus, UniProt W8DXJ8, H275Y); assay type: biochemical
[5] = molecular target: viral sialidase activity of A/Shizuoka/19/2016 (H1N1pdm) (Influenza A virus, UniProt A0A0X9QTS2); assay type: biochemical; settings: read-out: IC50 values in the sialidase inhibition assay
[6] = molecular target: viral sialidase activity of A/Shizuoka/17/2016 (H1N1pdm) (Influenza A virus, UniProt A0A0X9QTS2); assay type: biochemical; settings: read-out: IC50 values in the sialidase inhibition assay

SMILES	BTP3 fluorescence on the membrane in the presence of NAI [1]	BTP3 fluorescence on the membrane in the presence of NAI [2]	IC50 [3] [nM]	IC50 for A/Shizuoka/30/2014 relative to that for A/Shizuoka/1573/2009 [4] [fold]	IC50 ([4]; read-out: IC50 values in the sialidase inhibition assay) [nM]	IC50 [5] [nM]	IC50 [6] [nM]
CCOC(=O)C1=C[C@@H](OC(CC)CC)[C@H](NC(C)=O)[C@@H](N)C1 [OV, oseltamivir]	strong fluorescence	strong fluorescence	–	–	–	–	–
CCC(CC)[C@H](NC(C)=O)[C@@H]1[C@H](O)[C@@H](C(=O)O)C[C@H]1N=C(N)N [PV, peramivir]	strong fluorescence	strong fluorescence	41	1.9	79	0.05	0.05
